Test results reported in US20140093525A1, “COMPOSITIONS AND METHODS OF TREATING OPIOID ADDICTION” (Minneapolis Medical Research Foundation, priority 2012, published 2014).
Like-named read-outs stand apart in the source and are kept apart here. Where a SMILES comes first, the peptide text is derived from it. The star is where a group is joined. X1 = COc1ccc2c3c1OC1C(=NOCC(=O)*)CCC4(O)C(C2)N(C)CCC314

Experiments:
Anti-OXY antibodies = experiment: Competitive ELISA of serum from animals immunized with OXY(Gly)4-KLH, OXY(Gly)4-OVA as coating antigen; type: binding, rat
Description: Because plateau values differed, IC50 values for each inhibitor were calculated based on the percentage of inhibition of the optical density of primary antibodies incubated with saline.

[1] = system: serum antibodies elicited by M-KLH; experiment: Competition ELISA of serum from rats vaccinated with M-KLH
[2] = system: serum antibodies elicited by OXY-KLH; experiment: Competition ELISA of serum from rats vaccinated with OXY-KLH
Male Holtzman rats [3] = experiment: Example 4: thermal nociception (hot plate) after OXY, naltrexone and OXY-KLH vaccine; type: in vivo, rat
Description: Male Holtzman rats immunized once every 3 weeks for a total of 3 injections i.p., with 25 μg immunogen in Freund's adjuvant.
Significant differences existed between saline pretreated control rats and rats receiving NLTX. For pharmacokinetic experiments NLTX dose of 0.003 mg/kg was chosen based on MPE %. *p<0.05.

Male Holtzman rats [4] = experiment: Example 4: drug distribution studies (OXY in serum and brain); type: in vivo, rat; conditions: pre-treatment with 0.003 mg/kg NLTX; 2.25 mg/kg OXY s.c.
Description: Plasma and brain collected at 33 min after behavioral assessment on the hot plate, and measured using gas chromatography coupled to mass spectrometry.

[5] = relative to OXY, OXY(Gly)4-OVA as ELISA coating antigen

Compound	Cross-Reactivity (%) (Anti-OXY antibodies)	IC50 (Anti-OXY antibodies) [nM]	affinity, competition or binding to antibodies (in words) (Anti-OXY antibodies)	relative affinity of antiserum / cross-reactivity (in words) [1]	relative affinity of antiserum / cross-reactivity (in words) [2]	other results
COc1ccc2c3c1OC1C(=NOCC(=O)NCC(=O)NCC(=O)NCC(=O)NCC(=O)O)CCC4(O)C(C2)N(C)CCC314 (stereo not drawn) [OXY(Gly)4] (X1-GGGG-OH)	>100	3	high affinities			
COc1ccc2c3c1O[C@H]1C(=O)CC[C@H]4[C@@H](C2)N(C)CC[C@]314 [Hydrocodone]	0.2	10000	substantially lower	relatively low IC50 values	relatively low IC50 values	
C=CCN1CC[C@]23c4c5ccc(O)c4O[C@H]2C(=O)CC[C@@]3(O)[C@H]1C5 [Naloxone]						affinity, competition or binding to antibodies (in words) (Anti-OXY antibodies; competitive ELISA, serum from OXY(Gly)4-KLH immunized animals): substantially lower; Cross-Reactivity (%) (Anti-OXY antibodies; [5]): 1.2%
CCC(=O)C(CC(C)N(C)C)(c1ccccc1)c1ccccc1 (stereo not drawn) [Methadone]			no measurable binding			
tetraglycine [(Gly)4]			no measurable competition or binding	negligible	negligible cross-reactivity	
COc1ccc2c3c1O[C@H]1C(=O)CC[C@@]4(O)[C@@H](C2)N(C)CC[C@]314 [OXY, Oxycodone]	100	17	high affinities			
CN1CC[C@]23c4c5ccc(O)c4O[C@H]2[C@@H](O)C=C[C@H]3[C@H]1C5 [Morphine]	0.1		substantially lower			
CC(=O)Oc1ccc2c3c1O[C@H]1[C@@H](OC(C)=O)C=C[C@H]4[C@@H](C2)N(C)CC[C@@]341 [heroin]				high relative affinities	low relative affinity	
O=C1CC[C@@]2(O)[C@H]3Cc4ccc(O)c5c4[C@@]2(CCN3CC2CC2)[C@H]1O5 [Naltrexone]			substantially lower			IC50 (Anti-OXY antibodies; competitive binding, OXY(Gly)4-OVA as ELISA coating antigen): 5000 nM; Cross-Reactivity (%) (Anti-OXY antibodies; [5]): 0.4%; effect on acute behavioral effects of OXY, thermal nociception (in words) (Male Holtzman rats [3]; NLTX 0.001-0.01 mg/kg s.c. 15 min prior to 2.25 mg/kg OXY): dose-dependently blocks; effect on behavioral tolerance to OXY (in words) (Male Holtzman rats [3]; repeated OXY administration): unable to block the effects of tolerance; effect on distribution of OXY in immunized rats (in words) (Male Holtzman rats [4]): does not alter the distribution of OXY
CN1CC[C@]23c4c5ccc(O)c4O[C@H]2C(=O)CC[C@@]3(O)[C@H]1C5 [Oxymorphone]	63	30			high relative affinities	
